Measured values reported in ChEMBL document CHEMBL3885881, “DrugMatrix”.

Species: Rattus norvegicus
Assay: DrugMatrix - Regimen: Daily Repeat
Format: toxicity, organism-based, Sprague-Dawley
Set-up: regimen Daily Repeat, gender Male, age 6-8 weeks
Settings: in vivo, po, 430 mg/kg, route oral GAVAGE, dose level High, vehicle .5 % CMC; for ABSOLUTE BASOPHIL / ABSOLUTE EOSINOPHIL / ABSOLUTE LYMPHOCYTE / ABSOLUTE MONOCYTE / ABSOLUTE SEGMENTED NEUTROPHIL / BASOPHIL / EOSINOPHIL / ERYTHROCYTE COUNT / HEMATOCRIT / HEMOGLOBIN / LEUKOCYTE COUNT / LYMPHOCYTE / MEAN CORPUSCULAR HEMOGLOBIN / MEAN CORPUSCULAR HEMOGLOBIN CONCENTRATION / MEAN CORPUSCULAR VOLUME / MONOCYTE / NEUTROPHIL / NUCLEATED RED BLOOD CELLS / PLATELET COUNT: tissue Blood; for ALANINE AMINOTRANSFERASE / ALBUMIN / ALKALINE PHOSPHATASE / ASPARTATE AMINOTRANSFERASE / BLOOD UREA NITROGEN / CARBON DIOXIDE / CHLORIDE / CHOLESTEROL / CREATININE / GLUCOSE / LACTATE DEHYDROGENASE / LIPASE / PHOSPHORUS / POTASSIUM / SODIUM / TOTAL BILIRUBIN / TOTAL PROTEIN / URIC ACID: tissue Plasma

ClC(Cl)Br [BROMODICHLOROMETHANE]
ABSOLUTE BASOPHIL (72 h, time 3 day): 0 CELLS/uL
ABSOLUTE EOSINOPHIL (72 h, time 3 day): 216.67 CELLS/uL
ABSOLUTE LYMPHOCYTE (72 h, time 3 day): 11508.33 CELLS/uL
ABSOLUTE MONOCYTE (72 h, time 3 day): 948.33 CELLS/uL
ABSOLUTE SEGMENTED NEUTROPHIL (72 h, time 3 day): 1326.67 CELLS/uL
BASOPHIL (72 h, time 3 day): 0%
EOSINOPHIL (72 h, time 3 day): 1.33%
ERYTHROCYTE COUNT (72 h, time 3 day): 6.13 x10E6/uL
HEMATOCRIT (72 h, time 3 day): 37.07%
HEMOGLOBIN (72 h, time 3 day): 13.87 G/DL
LEUKOCYTE COUNT (72 h, time 3 day): 14 x10E3/uL
LYMPHOCYTE (72 h, time 3 day): 82.33%
MEAN CORPUSCULAR HEMOGLOBIN (72 h, time 3 day): 22.63 pg
MEAN CORPUSCULAR HEMOGLOBIN CONCENTRATION (72 h, time 3 day): 37.4 G/DL
MEAN CORPUSCULAR VOLUME (72 h, time 3 day): 60.47 fL
MONOCYTE (72 h, time 3 day): 6.67%
NEUTROPHIL (72 h, time 3 day): 9.67%
NUCLEATED RED BLOOD CELLS (72 h, time 3 day): 0 /100WBC
PLATELET COUNT (72 h, time 3 day): 1186 x10E3/uL
ALANINE AMINOTRANSFERASE (72 h, time 3 day): 73.33 u/L
ALBUMIN (72 h, time 3 day): 4.57 G/DL
ALKALINE PHOSPHATASE (72 h, time 3 day): 459.67 u/L
ASPARTATE AMINOTRANSFERASE (72 h, time 3 day): 106 u/L
BLOOD UREA NITROGEN (72 h, time 3 day): 18.67 mg/dL
CARBON DIOXIDE (72 h, time 3 day): 23 mmol/L
CHLORIDE (72 h, time 3 day): 104.67 MEQ/L
CHOLESTEROL (72 h, time 3 day): 72 mg/dL
CREATININE (72 h, time 3 day): 0.22 mg/dL
GLUCOSE (72 h, time 3 day): 124.33 mg/dL
LACTATE DEHYDROGENASE (72 h, time 3 day): 655 u/L
LIPASE (72 h, time 3 day): 9 u/L
PHOSPHORUS (72 h, time 3 day): 12.47 mg/dL
POTASSIUM (72 h, time 3 day): 6.06 MEQ/L
SODIUM (72 h, time 3 day): 141.67 MEQ/L
TOTAL BILIRUBIN (72 h, time 3 day): 0.27 mg/dL
TOTAL PROTEIN (72 h, time 3 day): 5.93 G/DL
URIC ACID (72 h, time 3 day): 1.9 mg/dL
ABSOLUTE BASOPHIL (120 h, time 5 day): 0 CELLS/uL
ABSOLUTE EOSINOPHIL (120 h, time 5 day): 20 CELLS/uL
ABSOLUTE LYMPHOCYTE (120 h, time 5 day): 7894 CELLS/uL
ABSOLUTE MONOCYTE (120 h, time 5 day): 268.67 CELLS/uL
ABSOLUTE SEGMENTED NEUTROPHIL (120 h, time 5 day): 750.67 CELLS/uL
BASOPHIL (120 h, time 5 day): 0%
EOSINOPHIL (120 h, time 5 day): 0.33%
ERYTHROCYTE COUNT (120 h, time 5 day): 6.18 x10E6/uL
HEMATOCRIT (120 h, time 5 day): 35.9%
HEMOGLOBIN (120 h, time 5 day): 13 G/DL
LEUKOCYTE COUNT (120 h, time 5 day): 8.93 x10E3/uL
LYMPHOCYTE (120 h, time 5 day): 88.67%
MEAN CORPUSCULAR HEMOGLOBIN (120 h, time 5 day): 21.07 pg
MEAN CORPUSCULAR HEMOGLOBIN CONCENTRATION (120 h, time 5 day): 36.23 G/DL
MEAN CORPUSCULAR VOLUME (120 h, time 5 day): 58.1 fL
MONOCYTE (120 h, time 5 day): 2.67%
NEUTROPHIL (120 h, time 5 day): 8.33%
NUCLEATED RED BLOOD CELLS (120 h, time 5 day): 0 /100WBC
PLATELET COUNT (120 h, time 5 day): 970.33 x10E3/uL
ALANINE AMINOTRANSFERASE (120 h, time 5 day): 85 u/L
ALBUMIN (120 h, time 5 day): 4.6 G/DL
ALKALINE PHOSPHATASE (120 h, time 5 day): 399.33 u/L
ASPARTATE AMINOTRANSFERASE (120 h, time 5 day): 105 u/L
BLOOD UREA NITROGEN (120 h, time 5 day): 12.67 mg/dL
CARBON DIOXIDE (120 h, time 5 day): 33.67 mmol/L
CHLORIDE (120 h, time 5 day): 103.67 MEQ/L
CHOLESTEROL (120 h, time 5 day): 63.33 mg/dL
CREATININE (120 h, time 5 day): 0.21 mg/dL
GLUCOSE (120 h, time 5 day): 116 mg/dL
LACTATE DEHYDROGENASE (120 h, time 5 day): 107.67 u/L
LIPASE (120 h, time 5 day): 9.33 u/L
PHOSPHORUS (120 h, time 5 day): 10.87 mg/dL
POTASSIUM (120 h, time 5 day): 5.17 MEQ/L
SODIUM (120 h, time 5 day): 146.4 MEQ/L
TOTAL BILIRUBIN (120 h, time 5 day): 0.23 mg/dL
TOTAL PROTEIN (120 h, time 5 day): 6.17 G/DL
URIC ACID (120 h, time 5 day): 0.8 mg/dL
ABSOLUTE BASOPHIL ([…], time 14 day): 0 CELLS/uL
ABSOLUTE EOSINOPHIL ([…], time 14 day): 120.4 CELLS/uL
ABSOLUTE LYMPHOCYTE ([…], time 14 day): 11064.6 CELLS/uL
ABSOLUTE MONOCYTE ([…], time 14 day): 372 CELLS/uL
ABSOLUTE SEGMENTED NEUTROPHIL ([…], time 14 day): 2303 CELLS/uL
BASOPHIL ([…], time 14 day): 0%
EOSINOPHIL ([…], time 14 day): 0.8%
ERYTHROCYTE COUNT ([…], time 14 day): 6.18 x10E6/uL
HEMATOCRIT ([…], time 14 day): 34.92%
HEMOGLOBIN ([…], time 14 day): 12.94 G/DL
LEUKOCYTE COUNT ([…], time 14 day): 13.86 x10E3/uL
LYMPHOCYTE ([…], time 14 day): 80.8%
MEAN CORPUSCULAR HEMOGLOBIN ([…], time 14 day): 20.96 pg
MEAN CORPUSCULAR HEMOGLOBIN CONCENTRATION ([…], time 14 day): 37.08 G/DL
MEAN CORPUSCULAR VOLUME ([…], time 14 day): 56.58 fL
MONOCYTE ([…], time 14 day): 2.6%
NEUTROPHIL ([…], time 14 day): 15.8%
NUCLEATED RED BLOOD CELLS ([…], time 14 day): 0 /100WBC
PLATELET COUNT ([…], time 14 day): 862.2 x10E3/uL
ALANINE AMINOTRANSFERASE ([…], time 14 day): 65.6 u/L
ALBUMIN ([…], time 14 day): 4.56 G/DL
ALKALINE PHOSPHATASE ([…], time 14 day): 422.2 u/L
ASPARTATE AMINOTRANSFERASE ([…], time 14 day): 104.6 u/L
BLOOD UREA NITROGEN ([…], time 14 day): 19.6 mg/dL
CARBON DIOXIDE ([…], time 14 day): 25.8 mmol/L
CHLORIDE ([…], time 14 day): 106.8 MEQ/L
CHOLESTEROL ([…], time 14 day): 71.4 mg/dL
CREATININE ([…], time 14 day): 0.25 mg/dL
GLUCOSE ([…], time 14 day): 140.6 mg/dL
LACTATE DEHYDROGENASE ([…], time 14 day): 190 u/L
LIPASE ([…], time 14 day): 9.2 u/L
PHOSPHORUS ([…], time 14 day): 10.96 mg/dL
POTASSIUM ([…], time 14 day): 5.79 MEQ/L
SODIUM ([…], time 14 day): 145.9 MEQ/L
TOTAL BILIRUBIN ([…], time 14 day): 0.16 mg/dL
TOTAL PROTEIN ([…], time 14 day): 6.14 G/DL
URIC ACID ([…], time 14 day): 1.44 mg/dL
